Measurements taken from article PMC9120017, “Inhibition mechanism of the chloride channel TMEM16A by the pore blocker 1PBC” (Nature Communications, 2022).
Read-outs that look alike come from different tables or passages of the source.

Target: T1, mouse TMEM16A mutant V599A (Mus musculus, UniProt Q8BHY3, V599A)
T1 construct: expressed in transfected cells; host or cells: HEK293T
T1 sequence (Q8BHY3 1-960 V599A): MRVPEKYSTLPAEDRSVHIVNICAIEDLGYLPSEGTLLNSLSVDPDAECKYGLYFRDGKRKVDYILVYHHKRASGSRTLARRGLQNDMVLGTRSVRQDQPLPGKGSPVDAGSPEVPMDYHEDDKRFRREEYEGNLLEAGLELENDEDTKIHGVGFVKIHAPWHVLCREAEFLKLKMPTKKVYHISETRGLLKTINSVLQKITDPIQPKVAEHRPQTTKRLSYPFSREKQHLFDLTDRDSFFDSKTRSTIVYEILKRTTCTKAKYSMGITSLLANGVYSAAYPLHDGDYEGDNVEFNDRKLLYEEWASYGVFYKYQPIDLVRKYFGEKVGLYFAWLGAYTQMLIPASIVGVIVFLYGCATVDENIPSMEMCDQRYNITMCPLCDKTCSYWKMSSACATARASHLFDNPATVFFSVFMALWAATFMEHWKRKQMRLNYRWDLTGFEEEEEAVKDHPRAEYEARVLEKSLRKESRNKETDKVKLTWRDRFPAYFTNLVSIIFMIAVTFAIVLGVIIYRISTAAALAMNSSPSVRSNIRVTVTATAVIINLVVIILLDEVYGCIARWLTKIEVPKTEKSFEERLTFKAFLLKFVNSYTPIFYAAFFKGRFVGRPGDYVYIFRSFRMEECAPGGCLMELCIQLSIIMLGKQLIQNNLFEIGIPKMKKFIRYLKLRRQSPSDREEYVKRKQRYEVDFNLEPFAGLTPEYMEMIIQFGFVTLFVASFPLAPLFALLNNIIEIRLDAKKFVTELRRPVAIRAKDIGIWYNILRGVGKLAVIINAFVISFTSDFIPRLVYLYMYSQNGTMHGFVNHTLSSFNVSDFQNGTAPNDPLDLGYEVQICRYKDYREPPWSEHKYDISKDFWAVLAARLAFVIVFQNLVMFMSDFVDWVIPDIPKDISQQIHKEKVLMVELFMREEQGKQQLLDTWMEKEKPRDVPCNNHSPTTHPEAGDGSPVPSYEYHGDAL
Assay: Inside-out patch recording of 1PBC block, mutant V599A
Type: cell-based
Conditions: for IC50: 15 µM Ca2+
Protocol: HEK293T cells (ATCC CRL-1573) were maintained in Dulbecco’s modified Eagle’s medium (DMEM; Sigma-Aldrich) supplemented with 10 U ml^−1 penicillin, 0.1 mg ml^−1 streptomycin (Sigma-Aldrich), 2 mM L-glutamine (Sigma-Aldrich), and 10% FBS (Sigma-Aldrich) in a humidified atmosphere containing 5% CO2 at 37 °C. HEK293S GnTI^− cells (ATCC CRL-3022) were maintained in HyClone HyCell TransFx-H medium (GE Healthcare) supplemented with 10 U ml^−1 penicillin, 0.1 mg ml^−1 streptomycin, 4 mM L-glutamine, 0.15% poloxamer 188 (Sigma-Aldrich), and 1% FBS in an atmosphere containing 5% CO2 at 185 rpm at 37 °C. The ac splice variant of mouse TMEM16A (UniProt ID: Q8BHY3), mouse TMEM16B (UniProt ID: Q8CFW1), or mouse TMEM16F (UniProt ID: Q6P9J9) bearing a 3C cleavage site, a Venus YFP, a Myc tag, and a Streptavidin-binding peptide (SBP) downstream of the open reading frame in a modified pcDNA3.1 vector (Invitrogen) were used as described previously[21],[31]. Mutations were introduced using a modified QuikChange method[58] and were verified by sequencing.
HEK293T cells were transfected with 3–4 μg DNA per 6 cm Petri dish using the calcium phosphate co-precipitation method and were used within 24–96 h after transfection. Recordings were performed on inside-out patches excised from HEK293T cells expressing the construct of interest. Patch pipettes were pulled from borosilicate glass capillaries (O.D. 1.5 mm, I.D. 0.86 mm, Sutter Instrument) and were fire-polished with a microforge (Narishige) before use. Pipette resistance was typically 3–8 MΩ when filled with the recording solutions detailed below. Seal resistance was typically 4 GΩ or higher. Voltage-clamp recordings were made using Axopatch 200B, Digidata 1550, and Clampex 10.7 (Molecular Devices). Analog signals were filtered with the in-built 4-pole Bessel filter at 10 kHz and were digitized at 20 kHz. Solution exchange was achieved using a gravity-fed system through a theta glass pipette mounted on an ultra-fast piezo-driven stepper (Siskiyou). […] All recordings were performed at 20 °C.
A symmetrical ionic condition was used throughout. Stock solution with Ca^2+-EGTA contained 150 mM NaCl, 5.99 mM Ca(OH)2, 5 mM EGTA, and 10 mM HEPES at pH 7.40. Stock solution with EGTA contained 150 mM NaCl, 5 mM EGTA, and 10 mM HEPES at pH 7.40. Free Ca^2+ concentrations were adjusted by mixing the stock solutions at the required ratios calculated using the WEBMAXC program (http://web.stanford.edu/~cpatton/webmaxcS.htm). Patch pipettes were filled with the stock solution with Ca^2+-EGTA, which has a free Ca^2+ concentration of 1 mM. 1PBC (ChemBridge) stock was reconstituted in anhydrous DMSO (Sigma-Aldrich) at 100 mM and stored at −20 °C. Working solutions with 1PBC were prepared by serial dilution. Unless otherwise stated, experiments were performed at a saturating Ca^2+ concentration as shown in Supplementary Table 1 and the primary data were corrected for current rundown as described previously[21],[25].
Concentration-response relations, obtained from the ratio of the I-V plots before and after the application of the blocker, were fitted to the Hill equation,1 I/Imax=1/1+IC50/[blocker]^h where I/Imax is the normalized current responses, IC50 defines the concentration at which inhibition is at its half-maximum, and h is the Hill coefficient.

N#Cc1c(C(F)(F)F)cc(O)n2c1nc1ccccc12 [1PBC] showed an IC50 (0 mV) of 69.5 µM, a remaining activity at 3 µM (0 mV, 1PBC conc 3, read-out: relative current in 1PBC (avr)) of 93.5% and a remaining activity at 10 µM (0 mV, 1PBC conc 10, read-out: relative current in 1PBC (avr)) of 87.7%. It also gave a remaining activity at 30 µM (0 mV, 1PBC conc 30, read-out: relative current in 1PBC (avr)) of 72%, a remaining activity at 100 µM (0 mV, 1PBC conc 100, read-out: relative current in 1PBC (avr)) of 39.4% and a remaining activity at 3 µM (3 µM 1PBC, +80 mV, saturating Ca2+ (15 µM), read-out: I/Imax) of 93.3%. The remaining activity at 3 µM (3 µM 1PBC, -80 mV, saturating Ca2+ (15 µM), read-out: I/Imax) was 94.9%, the remaining activity at 10 µM (10 µM 1PBC, +80 mV, saturating Ca2+ (15 µM), read-out: I/Imax) was 84% and the remaining activity at 10 µM (10 µM 1PBC, -80 mV, saturating Ca2+ (15 µM), read-out: I/Imax) was 91.7%. It also gave a remaining activity at 30 µM (30 µM 1PBC, +80 mV, saturating Ca2+ (15 µM), read-out: I/Imax) of 62.6%, a remaining activity at 30 µM (30 µM 1PBC, -80 mV, saturating Ca2+ (15 µM), read-out: I/Imax) of 78.1% and a remaining activity at 100 µM (100 µM 1PBC, +80 mV, saturating Ca2+ (15 µM), read-out: I/Imax) of 27.8%. It also gave a remaining activity at 100 µM (100 µM 1PBC, -80 mV, saturating Ca2+ (15 µM), read-out: I/Imax) of 50.8%, an IC50 (20 mV) of 61.3 µM and a remaining activity at 3 µM (20 mV, 1PBC conc 3, read-out: relative current in 1PBC (avr)) of 93.3%. It also gave a remaining activity at 10 µM (20 mV, 1PBC conc 10, read-out: relative current in 1PBC (avr)) of 86.6%, a remaining activity at 30 µM (20 mV, 1PBC conc 30, read-out: relative current in 1PBC (avr)) of 69.3% and a remaining activity at 100 µM (20 mV, 1PBC conc 100, read-out: relative current in 1PBC (avr)) of 36%. For the same compound, the IC50 (40 mV) was 55.5 µM, the remaining activity at 3 µM (40 mV, 1PBC conc 3, read-out: relative current in 1PBC (avr)) was 93.6% and the remaining activity at 10 µM (40 mV, 1PBC conc 10, read-out: relative current in 1PBC (avr)) was 86.2%. For the same compound, the remaining activity at 30 µM (40 mV, 1PBC conc 30, read-out: relative current in 1PBC (avr)) was 67.1%, the remaining activity at 100 µM (40 mV, 1PBC conc 100, read-out: relative current in 1PBC (avr)) was 32.9% and the IC50 (60 mV) was 48.9 µM. The remaining activity at 3 µM (60 mV, 1PBC conc 3, read-out: relative current in 1PBC (avr)) was 92.4%, the remaining activity at 10 µM (60 mV, 1PBC conc 10, read-out: relative current in 1PBC (avr)) was 84.6% and the remaining activity at 30 µM (60 mV, 1PBC conc 30, read-out: relative current in 1PBC (avr)) was 64.2%. The remaining activity at 100 µM (60 mV, 1PBC conc 100, read-out: relative current in 1PBC (avr)) was 30%, the “log-fold IC50 (change of mutant vs WT)” value (80 mV) was 1.35 and the IC50 (80 mV) was 45.8 µM. For the same compound, the remaining activity at 3 µM (80 mV, 1PBC conc 3, read-out: relative current in 1PBC (avr)) was 93.3%, the remaining activity at 10 µM (80 mV, 1PBC conc 10, read-out: relative current in 1PBC (avr)) was 84% and the remaining activity at 30 µM (80 mV, 1PBC conc 30, read-out: relative current in 1PBC (avr)) was 62.6%. It also gave a remaining activity at 100 µM (80 mV, 1PBC conc 100, read-out: relative current in 1PBC (avr)) of 27.8%, an IC50 (100 mV) of 45 µM and a remaining activity at 3 µM (100 mV, 1PBC conc 3, read-out: relative current in 1PBC (avr)) of 94.2%. For the same compound, the remaining activity at 10 µM (100 mV, 1PBC conc 10, read-out: relative current in 1PBC (avr)) was 83.7%, the remaining activity at 30 µM (100 mV, 1PBC conc 30, read-out: relative current in 1PBC (avr)) was 62.5% and the remaining activity at 100 µM (100 mV, 1PBC conc 100, read-out: relative current in 1PBC (avr)) was 26.8%. The IC50 (120 mV) was 45.1 µM, the remaining activity at 3 µM (120 mV, 1PBC conc 3, read-out: relative current in 1PBC (avr)) was 95.5% and the remaining activity at 10 µM (120 mV, 1PBC conc 10, read-out: relative current in 1PBC (avr)) was 83.7%. It also gave a remaining activity at 30 µM (120 mV, 1PBC conc 30, read-out: relative current in 1PBC (avr)) of 62.1%, a remaining activity at 100 µM (120 mV, 1PBC conc 100, read-out: relative current in 1PBC (avr)) of 27% and an IC50 (140 mV) of 48.5 µM. The remaining activity at 3 µM (140 mV, 1PBC conc 3, read-out: relative current in 1PBC (avr)) was 97.8%, the remaining activity at 10 µM (140 mV, 1PBC conc 10, read-out: relative current in 1PBC (avr)) was 86.2% and the remaining activity at 30 µM (140 mV, 1PBC conc 30, read-out: relative current in 1PBC (avr)) was 63.1%. For the same compound, the remaining activity at 100 µM (140 mV, 1PBC conc 100, read-out: relative current in 1PBC (avr)) was 28.2%.
